The values that follow come from PMC6017745 (Molecules : A Journal of Synthetic Chemistry and Natural …, 2018).

The Kb is the affinity of an antagonist, worked out from how it opposes an agonist. A higher Kb goes with lower antagonist affinity. As usually defined, the Ki is the dissociation constant of the complex between target and ligand, obtained from inhibition or displacement.

Molecules are shown by their SMILES. Entries after “also recorded” stand apart in the source; their conditions may differ. Like-named read-outs stand apart in the source and are kept apart here.

For one data set, the system named is Lewis rats. Description: Food consumption during subchronic administration to rats (metabolic cages). Format: in vivo, rat. As to conditions: s.c. 3 mg/kg/daily for five days.
The test system of data set [1] is histamine concentration in rat brain. Briefly: Post-mortem cerebral histamine concentration (ELISA). Format: in vivo. The note with it: rats, s.c. 3 mg/kg/daily for five days.
Method: (§2) Post-mortem brain analyses included estimation of the amine neurotransmitters concentrations as well as the activities of the degradative enzymes HNMT and MAO-A and MAO-B. The rats were sacrificed 24 h after the last injection. The brains were collected, separated into hypothalamus and the cerebral cortex according to the Glowinski and Iversen method [42], immediately frozen in liquid nitrogen and kept at −80 °C until assayed. […] For MAO-A serotonin (5-[2-^14C]-hydroxytryptamine binoxalate) and for MAO-B β-[ethyl-1-^14C]-phenylethylamine hydrochloride were used as substrates and respectively, clorgyline (MAO-A) and deprenyl (MAO-B) (final conc. 10^−9 M) as the enzymes inhibitors.
Data set [2] concerns dopamine, noradrenaline and serotonin concentration in rat brain. Description: Post-mortem cerebral concentration of biogenic amines DA, NA, 5-HT (RIA). The note with it: rats. Format: in vivo.
Method: as §2
The next data set relates to MAO-A. Briefly: Post-mortem cerebral MAO-A activity (radioisotopic assay). In kind it is in vivo, rat. The note with it: cerebral cortex, rats s.c. 3 mg/kg/daily for five days, means ± SEM. As to the method:
(§1) Post-mortem brain analyses included estimation of the amine neurotransmitters concentrations as well as the activities of the degradative enzymes HNMT and MAO-A and MAO-B. The rats were sacrificed 24 h after the last injection. The brains were collected, separated into hypothalamus and the cerebral cortex according to the Glowinski and Iversen method, immediately frozen in liquid nitrogen and kept at −80 °C until assayed. […] For MAO-A serotonin (5-[2-^14C]-hydroxytryptamine binoxalate) and for MAO-B β-[ethyl-1-^14C]-phenylethylamine hydrochloride were used as substrates and respectively, clorgyline (MAO-A) and deprenyl (MAO-B) (final conc. 10^−9 M) as the enzymes inhibitors. Protein was measured by Lowry method.

The next data set has as its system MAO-B. Description: Post-mortem cerebral MAO-B activity (radioisotopic assay). Format: in vivo, rat. As to conditions: cerebral cortex, rats s.c. 3 mg/kg/daily for five days, means ± SEM. The method, then: as §1
The next data set concerns HNMT. Briefly: Post-mortem cerebral HNMT activity (radioisotopic assay). In kind it is in vivo, rat. The note with it: for HNMT activity CTX: cerebral cortex; for HNMT activity CTX / HNMT activity HTH: rats s.c. 3 mg/kg/daily for five days, means ± SEM; for HNMT activity HTH: hypothalamus.
The target in data set [3] is T1, H1 receptor (Cavia porcellus, UniProt P31389). The arrangement: The excised ileum was placed in phosphate buffer at room temperature; from tissue; host or cells: guinea pig ileum. The note with it: guinea pig ileum, NA = inactive, cited from earlier work.
The target in data set [4] is T2, rat histamine H3 receptor (rH3R) (Rattus norvegicus, UniProt Q9QYN8). The note with it: read-out: KD saturation binding at rH3R; HEK-293T membranes, two hours at 25 °C.
The target of data set [5] is human histamine H3 receptor (hH3R) (Homo sapiens, UniProt Q9Y5N1). As to conditions: read-out: KD saturation binding at hH3R.
For data set [6], the target named is T1, H1 receptor. Briefly: H1 antagonistic effects in vitro using the guinea pig ileum.
Method: The final compounds showing the highest potency for the H3 receptors were also tested for H1 antagonistic effects in vitro, following standard methods, using the guinea pig ileum [34].
Selected final compounds were tested for H1 antagonistic effects in vitro, following standard methods, using the guinea pig ileum [34]. The donors were male guinea pigs (300–400 g) as mentioned above.
The target in a further data set is H3 receptor (Cavia porcellus, UniProt Q9JI35). Briefly: H3 antagonistic activity against H3 agonist-induced inhibition of electrically evoked contraction of guinea-pig jejunum. The note with it: vs (R)-α-methylhistamine, Schild analysis; for Kb: pA2 (SEM) H3, guinea pig jejunum; for pA2 (SEM) H3: guinea pig jejunum.
In data set [7] the target is T2, rat histamine H3 receptor (rH3R). Briefly: biochemical.

H3 receptor, sequence (Q9JI35 whole entry): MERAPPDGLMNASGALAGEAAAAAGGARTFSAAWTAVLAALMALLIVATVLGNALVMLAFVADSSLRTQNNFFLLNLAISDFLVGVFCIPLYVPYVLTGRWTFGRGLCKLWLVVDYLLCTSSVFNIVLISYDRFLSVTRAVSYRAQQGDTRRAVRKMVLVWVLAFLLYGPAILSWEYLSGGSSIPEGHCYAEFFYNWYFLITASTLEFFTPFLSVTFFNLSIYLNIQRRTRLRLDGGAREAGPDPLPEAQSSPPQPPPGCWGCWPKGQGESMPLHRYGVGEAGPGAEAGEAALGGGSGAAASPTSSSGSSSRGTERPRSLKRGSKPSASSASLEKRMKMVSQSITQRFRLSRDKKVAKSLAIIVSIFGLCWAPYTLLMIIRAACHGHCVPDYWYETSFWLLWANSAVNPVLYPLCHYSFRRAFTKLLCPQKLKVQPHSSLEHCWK
T1 sequence (P31389 whole entry): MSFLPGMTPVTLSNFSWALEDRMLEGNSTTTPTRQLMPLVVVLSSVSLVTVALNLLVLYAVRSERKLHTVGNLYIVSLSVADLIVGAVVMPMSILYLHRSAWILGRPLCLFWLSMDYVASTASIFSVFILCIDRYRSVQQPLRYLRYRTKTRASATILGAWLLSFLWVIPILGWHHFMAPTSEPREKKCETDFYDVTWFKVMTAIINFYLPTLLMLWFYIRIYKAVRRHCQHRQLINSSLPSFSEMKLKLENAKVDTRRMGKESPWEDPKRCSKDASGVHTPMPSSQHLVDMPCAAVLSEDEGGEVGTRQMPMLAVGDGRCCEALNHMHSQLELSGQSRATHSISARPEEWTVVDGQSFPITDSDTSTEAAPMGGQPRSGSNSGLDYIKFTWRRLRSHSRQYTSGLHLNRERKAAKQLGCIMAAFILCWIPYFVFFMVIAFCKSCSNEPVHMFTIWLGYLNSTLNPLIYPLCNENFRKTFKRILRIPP
T2 sequence (Q9QYN8 whole entry): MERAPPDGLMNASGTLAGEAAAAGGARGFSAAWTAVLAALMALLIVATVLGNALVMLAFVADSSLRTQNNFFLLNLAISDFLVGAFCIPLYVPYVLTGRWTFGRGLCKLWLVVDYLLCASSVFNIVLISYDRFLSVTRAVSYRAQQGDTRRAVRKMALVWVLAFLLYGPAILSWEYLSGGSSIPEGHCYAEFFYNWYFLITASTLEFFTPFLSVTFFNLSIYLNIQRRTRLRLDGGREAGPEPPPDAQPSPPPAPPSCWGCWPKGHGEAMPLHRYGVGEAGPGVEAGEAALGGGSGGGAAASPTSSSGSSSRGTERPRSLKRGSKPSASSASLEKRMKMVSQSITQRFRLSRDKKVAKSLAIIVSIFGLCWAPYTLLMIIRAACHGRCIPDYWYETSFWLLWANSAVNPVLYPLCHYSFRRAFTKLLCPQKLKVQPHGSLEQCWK
human histamine H3 receptor (hH3R), sequence (Q9Y5N1 whole entry): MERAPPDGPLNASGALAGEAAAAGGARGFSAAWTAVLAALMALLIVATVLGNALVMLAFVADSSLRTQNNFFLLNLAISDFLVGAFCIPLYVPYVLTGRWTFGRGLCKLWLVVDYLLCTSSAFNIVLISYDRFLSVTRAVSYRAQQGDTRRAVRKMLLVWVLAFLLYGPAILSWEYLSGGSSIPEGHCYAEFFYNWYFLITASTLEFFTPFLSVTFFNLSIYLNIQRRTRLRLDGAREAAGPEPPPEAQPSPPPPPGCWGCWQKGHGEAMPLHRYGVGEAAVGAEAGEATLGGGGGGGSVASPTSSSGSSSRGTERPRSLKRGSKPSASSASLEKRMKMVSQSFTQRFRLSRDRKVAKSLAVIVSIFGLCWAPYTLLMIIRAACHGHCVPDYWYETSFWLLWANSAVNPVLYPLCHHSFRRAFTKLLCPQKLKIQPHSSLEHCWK
Method for HNMT: as §2
Method for Lewis rats: For the first stage, food intakes were measured daily during subchronic drugs administration. […] All animal experimental procedures were performed in accordance with EU directives and local ethical regulations. Male Lewis rats 9–10 weeks of age were used. Metabolic cages (Tecniplast, Buguggiate, Italy) were used to measure feed consumption. The cages have a standardized size that allows the animal to move inside freely. Throughout the adaptive period and the experimental one, access to feed and fluid was unlimited. The illumination cycle was stable at 12 h light on, 12 h light off. Rats were individually placed in the cages four days before the onset of treatment to adapt to a new environment and conditions of housing. The consumption and excretion were recorded every morning and the monitoring continued as long as the rats stayed in metabolic cages. The treatment ran for five days from the fifth day. […] Records of consumption were taken as g of feed per 100 g body mass.

For the molecule `CCCN1CCN(c2ncc(CCN(C)CCCc3ccccc3)s2)CC1` [Compound 2c, N-methyl-N-3-phenylalkyl-2-[2-(4-n-propylpiperazin-1-yl)-1,3-thiazol-5-yl]ethan-1-amine], the “effect on food intake” value in the data set on Lewis rats (listed as ADS-531, 3 mg/kg) is listed as “did not affect histamine concentration nor feeding behavior; also recorded: did not influence the food intake”. Besides, the cerebral histamine concentration result in data set [1] (listed as ADS-531, 3 mg/kg) is on record as “did not affect histamine concentration; also recorded: No significant changes”. The brain penetration result in data set [2] (s.c. 3 mg/kg, 5 days) is recorded as “penetrated the brain”. For the same molecule, the “cerebral concentrations of dopamine, noradrenaline and serotonin” value in data set [2] (s.c. 3 mg/kg/daily for five days, listed as ADS-531, 3 mg/kg) was “affected dopamine, noradrenaline and serotonin concentration; also recorded: caused alterations in the concentrations of dopamine, noradrenaline, and serotonin; also recorded: increase of 5HT and NA level throughout the brain with the exception of the hypothalamus”. In addition, in the data set with MAO-A, the “MAO-A activity CTX” value is 1625 ± 49.99 pmol/min/mg protein. In addition, the “MAO-B activity CTX” value in the data set on MAO-B turned out to be 1044 ± 38.91 pmol/min/mg protein. In the data set on HNMT, the “HNMT activity CTX” value amounted to 48.19 ± 0.47 pmol/min/mg protein and the “HNMT activity HTH” value was determined as 37.58 ± 2.42 pmol/min/mg protein. In the data set with HNMT (rats, s.c. 3 mg/kg/daily for five days), the “effect on enzyme activities related to histamine metabolism in the brain (HNMT, MAO-B pathway)” value is given as “No significant changes”. In addition, the “pA2 (SEM) H1” value at H1 receptor [3] was “did not possess any activity at H1”. On H1 receptor [3] (listed as ADS-531), the “pA2 (SEM) H1” value is “did not exhibit any H1-antagonistic activity; also recorded: devoid of the antagonistic activity at the H1 receptor”.

`CNCCc1cnc[nH]1` [[^3H]-N^α-MH, [^3H]-N^α-methylhistamine]: the values for the Kd in [4] and in data set [5] were 2.72 ± 0.34 nM and 0.9 ± 0.08 nM, respectively.

With `CCCN1CCN(c2ncc(CCCCN(C)Cc3ccccc3)s2)CC1` [Compound 3d, N-Benzyl-N-methyl-4-[2-(4-n-propylpiperazin-1-yl)-1,3-thiazol-5-yl]butan-1-amine], the Kb is 562 nM on H1 receptor [6] and 11.2 nM at H3 receptor. Moreover, the “pA2 (SEM) H1” value on H1 receptor [6] (guinea pig ileum, vs histamine) is recorded as 6.25.

On to `CCCN1CCN(c2ncc(CCCN(C)CCCc3ccccc3)s2)CC1` [Compound 3c, N-Methyl-N-(3-phenylpropyl)-3-[2-(4-n-propylpropylpiperazin-1-yl)-1,3-thiazol-5-yl]-propan-1-amine], for which, at H3 receptor, the “pA2 (SEM) H3” value came out at 7.46 and the antagonist equilibrium constant (Kb) is 34.7 nM.

In the case of `CCCN1CCN(c2ncc(CCCN(C)Cc3ccccc3)s2)CC1` [Compound 3a, N-Benzyl-N-methyl-3-[2-(4-n-piperazin-1-yl)-1,3-thiazol-5-yl]propan-1-amine], the Kb at H1 receptor [6] is 3160 nM. For the same molecule, on H3 receptor, the “pA2 (SEM) H3” value came out at 8.38 and the Kb was 4.17 nM.

For the molecule `O=C(c1ccc(OCCCc2cnc[nH]2)cc1)C1CC1` [Ciproxifan, ciproxifan, reference compound], in the data set on Lewis rats, the “effect on food intake” value was “caused a significant decrease in consumption”. In data set [1] (3 mg/kg), the “histamine concentration in the hypothalamus” value was “tended to be higher than in the untreated controls; also recorded: significantly higher than in ADS-531 injected rats”. In addition, the “MAO-A activity CTX” value in the data set with MAO-A is on record as 1654 ± 31.42 pmol/min/mg protein. Further, the “MAO-B activity CTX” value with MAO-B is 1049 ± 56.16 pmol/min/mg protein. Besides, in the data set on HNMT, the “HNMT activity CTX” value is 46.90 ± 3.59 pmol/min/mg protein and the “HNMT activity HTH” value is on record as 44.68 ± 5.50 pmol/min/mg protein.

`S=C(NC1CCCCC1)N1CCC(c2cnc[nH]2)CC1` [Thioperamide, thioperamide, reference compound] gave a Ki in [7] of 12.6 nM. The same molecule returned an antagonist dissociation constant (Kb) at H3 receptor of 3.39 nM.

With `CCCN1CCN(c2ncc(CCCCN(C)CCc3ccccc3)s2)CC1` [Compound 3e, N-Methyl-N-(2-phenylethyl)-4-[2-(4-n-propylpiperazin-1-yl)-1,3-thiazol-5-yl]butan-1-amine], the antagonist equilibrium constant (Kb) at H3 receptor was 10.7 nM.

As to `CCCN1CCN(c2ncc(CCCN(C)CCc3ccccc3)s2)CC1` [Compound 3b, N-Methyl-N-(2-phenylethyl)-3-[2-(4-n-propylpiperazin-1-yl)-1,3-thiazol-5-yl]propan-1-amine], on H3 receptor, the “pA2 (SEM) H3” value worked out at 7.81 and the Kb is 15.5 nM.

Take `CCCN1CCN(c2ncc(CCCCN(C)CCCc3ccccc3)s2)CC1` [Compound 3f, N-Methyl-N-(3-phenylpropyl)-4-[2-(4-n-propylpiperazin-1-yl)-1,3-thiazol-5-yl]butan-1-amine]: on H3 receptor, the “pA2 (SEM) H3” value was found to be 7.91 and the antagonist dissociation constant (Kb) was 12.3 nM.
